The source of these data is BindingDB's records for doi:10.1021/jm1001698 (Institute of Health Sciences, 2010).

The assay has as its target Bcl-xL (Homo sapiens). The experiment in a line: Displacement of FITC-labeled Bak-BH3 peptide from Bcl-XL after 1 hr by fluorescence polarization assay. (In general: Fluorescence polarisation rises when a labelled molecule tumbles more slowly, as on binding a larger partner.)

Broadly, the IC50 is the midpoint of a concentration-inhibition curve.

Consider `C=c1c(-c2c(O)c3c(C=N[C@@H]4C(=O)N5[C@@H]4SC(C)(C)[C@@H]5C(=O)O)c(O)c(O)c(=C(C)C)c3c(O)c2=C)c(O)c2c(C=N[C@@H]3C(=O)N4[C@@H]3SC(C)(C)[C@@H]4C(=O)O)c(O)c(O)c(=C(C)C)c2c1O` [sodium(2S,2'S,5R,5'R,6R,6'R)-6,6'-((1E,1'E)-(6,6',7,7'-tetrahydroxy-5,5'-diisopropyl-3,3'-dimethyl-1,1',4,4'-tetraoxo-1,1',4,4'-tetrahydro-2,2'-binaphthyl-8,8'-diyl)bis(methan-1-yl-1-ylidene)bis(azan-1-yl-1-ylidene))bis(3,3-dimethyl-7-oxo-4-thia-1-azabicyclo[3.2.0]heptane-2-carboxylate)], for which the IC50 stood at 1.76 µM.
